This is an account of results in PubChem BioAssay (NCI).

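1) Cells in 96-well plates. 2) Compound, 48 h, 5 concentrations. 3) Linear interpolation between surrounding doses. 4) Unreached endpoint = highest concentration. Here, GI50 denotes the concentration required for 50% inhibition of growth. The concentration for full growth arrest is given as TGI.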

Common to all, as to assay: NCI anticancer screen, dose series, 48 h
Assay [1] concerns SK-MEL-28 melanoma.
Assay [2] concerns A549 NSCLC.
The subject of assay [3] is UO-31 renal.
The subject of assay [4] is OVCAR-3 ovarian.
Assay [5] has as its system NCI-H23 lung.
In assay [6] the test system is HCT-15 colon.
In assay [7] the test system is UACC-62 melanoma.
For assay [8], the system named is IGROV1 ovarian.
Assay [9] has as its system SK-OV-3 ovarian.
For assay [10], the system named is T-47D breast.

Take `CCOC(=O)[C@@H](N)CCC(=O)N[C@@H](CSCc1ccccc1)C(=O)N[C@@H](C(=O)OCC)c1ccccc1`: the GI50 in [1] is 16.7 µM; in [2], greater than 73.2 µM; in [3], 34.5 µM; in [4], 16.7 µM; in assay [5] it was 18.8 µM; in [6], 33.7 µM. The GI50 in assay [7] was 17.1 µM; in [8], 19.3 µM; in [9] it was 16.6 µM; in assay [10], 14.8 µM. For the same compound, the TGI was 31.7 µM in assay [1]; greater than 100 µM in assay [2]; greater than 59.5 µM in [3]; 30.7 µM in assay [4]; 40.9 µM in assay [5]; greater than 71.2 µM in assay [6]. Further, the TGI in [7] is 33 µM; in [8] it was 36.4 µM; in assay [9] it was 31.5 µM; in assay [10] it was 33.8 µM.

For the compound `CC(C)(C)c1cc(Br)c(O)c(CN(Cc2cc(C(C)(C)C)cc(Br)c2O)C2CCCCC2)c1`, the TGI stood at 28.9 µM in assay [1]; 27.1 µM in assay [2]; 27.4 µM in assay [3]; 24.2 µM in [4]; 26.3 µM in assay [5]; 25.4 µM in assay [6]. For the same compound, the TGI in [7] worked out at 25.3 µM; in [8], 28.7 µM; in [9] it was 29.2 µM; in [10], 21.4 µM.

Consider `C=C1C(=O)O[C@H]2[C@H]1CC/C(COC(=O)C(=O)c1cn(Cc3ccccc3)c3ccccc13)=C\CC[C@@]1(C)O[C@@H]21`, for which the GI50 in assay [1] was 2.08 µM; in assay [2], 2.13 µM; in [3], 1.61 µM; in assay [4], 2.18 µM; in [5], 1.67 µM; in assay [6] it was 1.45 µM. Besides, the GI50 in assay [7] was 1.8 µM; in assay [8], 1.92 µM; in [9], 18.9 µM; in [10], 2.04 µM. The TGI turned out to be 4.98 µM in assay [1]; 6.35 µM in [2]; 3.1 µM in assay [3]; 5.65 µM in [4]; 3.56 µM in assay [5]; 3.69 µM in assay [6]. Moreover, the TGI stood at 4.42 µM in [7], 3.84 µM in [8], 56.7 µM in assay [9] and 4.85 µM in assay [10].

Consider `CN1CCN(CCCOc2ccc3nc(Nc4ccc(Cl)c(C(F)(F)F)c4)ccc3c2)CC1`, for which the GI50 was 13.8 µM in assay [1]; 14.7 µM in assay [2]; 14.5 µM in assay [3]; 12.5 µM in assay [4]; 13.9 µM in assay [5]; 3.66 µM in assay [6]. Besides, the GI50 is 16.4 µM in assay [7], 13.2 µM in [8], 18.2 µM in assay [9] and 17.6 µM in assay [10]. Moreover, the TGI in assay [1] worked out at 29.2 µM; in assay [2], 28.9 µM; in assay [3] it was 29.4 µM; in assay [4] it was 25.8 µM; in [5], 29.3 µM; in assay [6], 13.3 µM. Besides, the TGI was 31.7 µM in assay [7], 30.1 µM in [8], 33 µM in assay [9] and 37.3 µM in [10].

As to `COC(=O)[C@@H](C)CNS(=O)(=O)N(c1cc(C(F)(F)F)cc(C(F)(F)F)c1)C1CCN(Cc2ccc(F)cc2)CC1`, the GI50 in assay [1] is 14 µM; in assay [2], 14 µM; in assay [3], 11.7 µM; in assay [4], 10.4 µM; in assay [5] it was 12.2 µM; in assay [6], 4.42 µM. Moreover, the GI50 is 11 µM in assay [7], 18.8 µM in [8], 15.5 µM in assay [9] and 5.34 µM in assay [10]. Moreover, the TGI in [1] was 27.8 µM; in assay [2], 31 µM; in [3] it was 26 µM; in assay [4] it was 23 µM; in assay [5] it was 25.9 µM; in assay [6], 17.9 µM. The TGI in [7] came to 24.6 µM; in assay [8], 44.9 µM; in assay [9] it was 29 µM; in assay [10] it was 19.6 µM.

With `COC(C(O)CO)C(O)C(O)C(=O)NNc1ccccc1` (stereo not given), the TGI in assay [1], in assay [2], in assay [3], in assay [4], in assay [5] and in assay [6] was greater than 100 µM throughout. Moreover, the TGI in [7], in assay [8], in assay [9] and in assay [10] was greater than 100 µM each time.

With `CN1C/C=C\CCOc2cccc(c2)-c2ccnc(n2)Nc2cccc(c2)C1`, the GI50 is 0.0641 µM in assay [1]; 0.0469 µM in assay [2]; 0.0324 µM in assay [3]; 0.0419 µM in [4]; 0.0717 µM in assay [5]; 0.0435 µM in assay [6]. The GI50 in [7] is 0.0259 µM; in [8] it was 0.0487 µM; in assay [9], 0.209 µM; in assay [10] it was 0.0413 µM. The TGI is 0.451 µM in assay [1]; 0.8 µM in assay [2]; 0.46 µM in assay [3]; 0.769 µM in assay [4]; 0.599 µM in [5]; 1.96 µM in assay [6]. Also, the TGI in assay [7] amounted to 0.148 µM; in assay [8] it was 1.31 µM; in assay [9], 2.16 µM; in [10] it was 0.334 µM.

For `COC1=C(C)C(=O)c2c(c(COC(N)=O)c3n2CC2C3N2C)C1=O` (stereo not given), the TGI in assay [1] is 0.173 µM; in assay [2] it was 0.0645 µM; in assay [3] it was 0.232 µM; in assay [4], 0.0987 µM; in assay [5], less than 0.0363 µM; in [6], 0.0719 µM. The TGI in [7] was determined as 0.117 µM; in assay [8] it was 0.351 µM; in [9], 0.167 µM; in [10], 0.201 µM.

Regarding `c1cc(CNC23CC4CC(CC(C4)C2)C3)cc(C[N+](Cc2cccc(CNC34CC5CC(CC(C5)C3)C4)c2)(Cc2cccc(CNC34CC5CC(CC(C5)C3)C4)c2)Cc2cccc(CNC34CC5CC(CC(C5)C3)C4)c2)c1` (stereo not given), the GI50 in assay [1] was 6.94 µM; in assay [2], 8.91 µM; in assay [3], 3.41 µM; in assay [4], 4.35 µM; in assay [5], 6.38 µM; in assay [6], 4.59 µM. The GI50 in assay [7] was 4.86 µM; in assay [8], 3.7 µM; in [9] it was 21.4 µM; in [10] it was 5.59 µM. In addition, the TGI worked out at 33.1 µM in assay [1]; 36.4 µM in assay [2]; 8.21 µM in [3]; 11.8 µM in assay [4]; 26.6 µM in assay [5]; 16.4 µM in [6]. The TGI came out at 15.4 µM in [7], 9.8 µM in [8], 47.7 µM in assay [9] and 28.1 µM in assay [10].

Turning to `COC(=O)C1=CNC=C(C(=O)OC)C1C1=CC(=O)C(C)=CC1=O`, the GI50 in assay [1] is 24.3 µM; in [2], 19.6 µM; in assay [3], 12 µM; in assay [4] it was 5.64 µM; in assay [5], 16.5 µM; in assay [6], 17 µM. Besides, the GI50 in assay [7] was 13.6 µM; in [8], 14.3 µM; in assay [9], 17.6 µM; in assay [10], 17.9 µM. The TGI was greater than 59.6 µM in assay [1]; 42.1 µM in [2]; 24.5 µM in assay [3]; 22.1 µM in assay [4]; 31 µM in assay [5]; 32.6 µM in [6]. Further, the TGI in assay [7] came out at 26.5 µM; in assay [8] it was 27.5 µM; in assay [9] it was 37.3 µM; in assay [10] it was 44.6 µM.

Turning to `COc1nc2ccccc2cc1-c1nc2c(cnn2-c2ccc(Br)cc2)c(=O)[nH]1`, the GI50 in [1] was 0.361 µM; in assay [2], 0.0837 µM; in [3], 0.0603 µM; in [4] it was 0.0171 µM; in assay [5] it was 0.0825 µM; in [6], 0.0261 µM. The GI50 is 0.0234 µM in [7], 0.0591 µM in assay [8], 0.0638 µM in assay [9] and 0.0413 µM in assay [10]. Besides, the TGI in assay [1] was greater than 50 µM; in assay [2], greater than 50 µM; in [3], greater than 50 µM; in [4] it was 0.219 µM; in [5], 10.9 µM; in [6], greater than 50 µM. Besides, the TGI in assay [7] is greater than 50 µM; in assay [8], greater than 50 µM; in [9], 24.5 µM; in assay [10], greater than 50 µM.

For `COc1ccccc1CNCCCN1C(=O)c2ccc3c4c(ccc(c24)C1=O)C(=O)N(CCCOCCCCOCCCN)C3=O`, the GI50 in [1] was 1.59 µM; in assay [2], 1.22 µM; in assay [3] it was 1.55 µM; in assay [4] it was 0.297 µM; in [5] it was 0.604 µM; in [6], 0.888 µM. Besides, the GI50 was 0.645 µM in assay [7], 1.25 µM in assay [8], 2.35 µM in [9] and 0.926 µM in assay [10]. Also, the TGI in assay [1] is 3.05 µM; in assay [2], 2.82 µM; in assay [3] it was 3.15 µM; in [4], 0.754 µM; in assay [5] it was 2.58 µM; in assay [6], 3.3 µM. For the same compound, the TGI came to 1.96 µM in assay [7], 3.67 µM in assay [8], 5.76 µM in assay [9] and 3.34 µM in [10].

Take `COC(=O)[C@H](C)NC(=O)NC(=O)NC(=O)CI`: the GI50 in assay [1] is 14.4 µM; in assay [2] it was 20 µM; in assay [3], 6.83 µM; in assay [4], 12.3 µM; in assay [5], 16.8 µM; in assay [6], 5.26 µM. The GI50 in assay [7] is 16.8 µM; in [8] it was 17.1 µM; in [9], 19 µM; in [10] it was 7.46 µM. The TGI amounted to 29.9 µM in assay [1]; 36.3 µM in [2]; 20.1 µM in assay [3]; 25.2 µM in [4]; 36.9 µM in assay [5]; 18 µM in assay [6]. Also, the TGI in assay [7] worked out at 34.2 µM; in assay [8], 35.4 µM; in assay [9] it was 39.1 µM; in [10] it was 32.2 µM.
